This note sets out measurements from publication PMC11134331, “Cell-active small molecule inhibitors validate the SNM1A DNA repair nuclease as a cancer target” (Chemical Science, 2024).

Each structure is given as a SMILES string.

For one data set, the system named is RPE-1 cells. Briefly: clonogenic survival assay, RPE-1 cells. The class given is cell-based, human. As to the method:
(§1) Clonogenic assays were performed in 10 cm tissue culture dishes (for RPE-1 cells, U2OS cells and derived clones). Cells (1000 per dish) were seeded in complete media (10 mL) and allowed to attach overnight, then treated with cisplatin or cisplatin plus inhibitor for the times stated. Following treatments, cells were allowed to grow and form colonies for 10 days. Colonies formed were stained with Coomassie R250 (Sigma) and counted on a COLCount Colony Counter (Oxford Optronix). All experiments represent the mean (±SEM) of at least three biological repeats of duplicate dishes/flasks for each treatment.

For data set [1], the system named is U2OS (osteosarcoma) cells. Description: clonogenic survival assay, U2OS cells. The class given is cell-based, human. Here is the method:
as §1

Data set [2] deals with T1, SNM1B (Homo sapiens, UniProt Q9H816).
T1 construct: for the MBL and β-CASP domains of SNM1B (aa 1–335) into baculoviral expression vectors pFB-CT10HF-LIC; made in house; host or cells: Sf9 insect cells (baculovirus)
T1 sequence (Q9H816 1-335): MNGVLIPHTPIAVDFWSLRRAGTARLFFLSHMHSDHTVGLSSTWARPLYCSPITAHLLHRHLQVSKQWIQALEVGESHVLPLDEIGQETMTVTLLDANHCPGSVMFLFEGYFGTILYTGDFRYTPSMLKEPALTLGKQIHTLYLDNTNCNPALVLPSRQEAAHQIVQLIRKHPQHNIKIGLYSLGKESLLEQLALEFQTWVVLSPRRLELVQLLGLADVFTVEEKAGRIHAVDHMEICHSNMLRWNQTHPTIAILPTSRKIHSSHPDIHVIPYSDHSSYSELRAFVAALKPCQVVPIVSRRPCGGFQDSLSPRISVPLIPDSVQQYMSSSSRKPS
Description: gel-based nuclease assay, SNM1B. The data set is classed as biochemical. To be noted: 1 nM SNM1B. An excerpt: To validate the inhibition of SNM1A, SNM1B, and SNM1C observed in the fluorescence-based screening assays, we then performed gel-based assays using 3′ terminally-labelled oligonucleotide substrates that enable both quantitative and qualitative (visual) assessment of the pattern of inhibition, for a subset of compounds. Importantly, whereas the fluorescence-based assay measures a single hydrolytic event at the substrate terminus, the gel-based nuclease assay informs on the pattern of digestion of the entire 51-mer substrate DNA over time.
Standard exonuclease assays were carried out in a 10 μL final volume containing 20 mM HEPES-KOH, pH 7.5, 50 mM KCl, 0.5 mM TCEP, 10 mM MgCl2, 0.05% (v/v) Triton X-100, 5% (v/v) glycerol, and SNM1 proteins as indicated. Inhibitors were dissolved in DMSO and diluted immediately prior to the reaction in the above buffer. Inhibitors were serially diluted two-fold from 100 μM. The DMSO concentration was kept constant at 0.1% (v/v) in the final reaction mixture. Inhibitors were incubated with the indicated SNM1 enzyme for 10 minutes at room temperature; reactions were initiated by addition of 10 nM DNA substrate and incubated at 37 °C for 20 min. Reactions were quenched by addition of 5 μL stop solution (95% formamide, 10 mM EDTA, 0.25% (v/v) xylene cyanol, 0.25% (v/v) bromophenol blue) and heated at 95 °C for 3 min. Reactions were analysed by 20% denaturing polyacrylamide gel electrophoresis solution of 19 : 1 acrylamide:bis-acrylamide, BioRad and 7 M urea (Sigma Aldrich) in 1 × TBE (Tris-borate EDTA) buffer. Electrophoresis was carried out at 525 V for 75 minutes; gels were subsequently fixed for 60 minutes in a 50% (v/v) methanol, 10% (v/v) acetic acid solution, and dried at 80 °C for two hours under vacuum. Dried gels were exposed to a Kodak Phosphor imager screen and scanned using a Typhoon 9500 instrument (GE Healthcare), scanned images were quantified using ImageJ.
Suppl. Figure 10. Increasing concentrations (as indicated, in μM) of compounds incubated with 1 nM SNM1B or 2.5 nM SNM1C (room temperature, 10 min), before initiating nuclease reaction by addition of ssDNA (37 °C, 20 min). Products were analysed by 20% denaturing PAGE. Gels are representative versions from a minimum of three independent experimental repeats.
(1 picture or pasted object on this page, not shown here)

The target in data set [3] is T1, SNM1B. Description: real-time fluorescence-based nuclease assay, SNM1B. The class given is biochemical. Here is the method: There is structural similarity between SNM1A, SNM1B, and SNM1C and major mechanistic features are likely conserved between the three nucleases. We therefore tested (13) and other hydroxamic acid analogues for inhibition of SNM1B and SNM1C. Due to differences in catalytic turnover between the three enzymes, different concentrations of SNM1B (1 nM) and SNM1C (2.5 nM) were used compared to that for SNM1A (0.5 nM) in the assays. Note that the substrate utilised for the high-throughput fluorescence based and subsequent SNM1A and SNM1B assays differed slightly for SNM1C reflecting its (primarily) endonucleolytic, rather than exonucleolytic, activity (ESI Fig. 9 ^†).
Fluorescence-based nuclease digestion SNM1A–C assays were performed as described.[30,45] […] Fluorescence was measured using a PHERAstar FSX fluorescent plate reader in fluorescent top read mode using excitation at 495 nm, emission at 525 nm, and cutoff at […]. Fluorescence spectra were measured every 140 s, for 35 min, at 37 °C. The fluorescence intensity of each well was plotted against compound concentration and fitted using a log (inhibitor) response curve using GraphPad Prism software (GraphPad Software, Inc., La Jolla, CA, USA).

`C[C@H](Nc1nc(NCc2ccco2)nc2ccc(Cl)cc12)C(=O)NO` [compound 19]: in the data set with RPE-1 cells (RPE-1, 50 μM compound), the “effect on cisplatin sensitivity” value is given as “did not substantially increase” and the “reduction in survival as single agent” value is reported as “negligible reduction in survival”. For the same molecule, in the data set on RPE-1 cells (RPE-1, 100 μM compound), the “toxicity as single agent” value is reported as “mild toxicity”. In addition, the “effect on cisplatin cytotoxicity” value in data set [1] (U2OS wild-type, 50 μM compound 20 hours pre-treatment, 0–15 μM cisplatin) is listed as “potentiation of cisplatin cytotoxicity”. Also, the “cell death as single agent” value in data set [1] (U2OS, 50 μM compound) was not above 10%. In addition, the “cytotoxicity as single agent” value in data set [1] (U2OS, 100 μM compound) is recorded as “some cell death”. Further, the “inhibition of SNM1B in gel-based assay” value against SNM1B [2] is reported as “inhibits each of SNM1A–C”. Besides, at SNM1B [3], the IC50 was determined as 2500 nM.

In general, IC50 refers to the midpoint of a concentration-inhibition curve.
